{
  "source": "patent US10966978B2",
  "about": "“Dose and regimen for HDM2-p53 interaction inhibitors” (Novartis AG, priority 2016, dated 2021)",
  "system": "platelets",
  "test": "PK/PD model of thrombocytopenia (modeled platelet kinetic profiles)",
  "set-up": "species or system human",
  "conditions": "regimen 1B (150 mg)",
  "source_text": "Based on individual PK and platelet counts data overtime a PK/PD model was established.\nPK model: 1 compartment with biphasic absorption.\nPD model: Adjusted Friberg model for thrombocytopenia including PLT transfusions and effect on HDM201 on proliferative cells and regulations.\nThe platelet kinetic profiles shown in FIG. 5 are modeled based on the following doses as tested in each regimen (in order from top to bottom in FIG. 5): […]",
  "data": [
    {"smiles": "COc1ncc(-c2nc3c(n2C(C)C)[C@H](c2ccc(Cl)cc2)N(c2cc(Cl)cn(C)c2=O)C3=O)c(OC)n1", "note": "[HDM201, (S)-5-(5-Chloro-1-methyl-2-oxo-1,2-dihydro-pyridin-3-yl)-6-(4-chloro-phenyl)-2-(2,4-dimethoxy-pyrimidin-5-yl)-1-isopropyl-5,6-dihydro-1H-pyrrolo[3,4-d]imidazol-4-one]", "values": [
      {"measurement": "platelet kinetic profile, modeled, compared among regimens with single agent activity", "result": "best overall platelet kinetic profile"}
    ]}
  ]
}
